Data taken from ChEMBL document CHEMBL3045501, “Anti-inflammatory activity of 2,5-dihydroxycyclohepta-2,4,6-trienone in rats” (Med Chem Res, 2010).

How the values were obtained:
Rattus norvegicus [1] = test: Toxicity in Rattus norvegicus Wistar albino (rat) assessed as lethargy at 57.92 X 10^2 umol/kg, po; type: organism-based; conditions: in vivo
Oryctolagus cuniculus [2] = test: (§1) Inhibition of hyaluronidase-induced capillary permeability in albino Oryctolagus cuniculus (rabbit) assessed as area of subcutaneous spreading of trypan blue at 7.24 x 10^2 umol/kg, po pretreated 1 hr prior to mixture of hyaluronidase and trypan blue challenge measured after 30 min (reference value: 498.8 mm'2); type: functional
Rattus norvegicus [3] = test: Toxicity in Rattus norvegicus Wistar albino (rat) assessed as mortality at 65.16 to 68.78 X 10^2 umol/kg, po measured after 12 hr; type: organism-based; conditions: in vivo
Oryctolagus cuniculus [4] = test: as §1, with “3.62” for “7.24”; type: functional
Rattus norvegicus [5] = test: Toxicity in Rattus norvegicus Wistar albino (rat) assessed as mortality at 18.1 to 54.3 X 10^2 umol/kg, po; type: organism-based; conditions: in vivo
Rattus norvegicus [6] = test: Anti-inflammatory activity in Rattus norvegicus Wistar albino (rat) assessed as inhibition of carrageenan-induced paw edema at 7.24 X 10^2 umol/kg, po administered 1 hr prior to carrageenan challenge through oral gavage measured measured 4 hr after carrageenan treatment by plethysmometer; type: functional
[7] = Toxicity in Rattus norvegicus Wistar albino (rat) assessed as mortality at 61.54 X 10^2 umol/kg, po; type: organism-based; conditions: in vivo, read-out: Activity
Rattus norvegicus [8] = test: Toxicity in Rattus norvegicus Wistar albino (rat) assessed as animal posture at 61.54 umol/kg, po; type: organism-based; conditions: in vivo
Rattus norvegicus [9] = test: Anti-inflammatory activity in Rattus norvegicus Wistar albino (rat) assessed as inhibition of carrageenan-induced paw edema at 3.62 X 10^2 umol/kg, po administered 1 hr prior to carrageenan challenge through oral gavage measured 2 hr after carrageenan treatment by plethysmometer; type: functional
Oryctolagus cuniculus [10] = test: as §1, with “5” for “30”, “288.5” for “498.8”; type: functional
Rattus norvegicus [11] = test: Anti-inflammatory activity in Rattus norvegicus Wistar albino (rat) assessed as inhibition of carrageenan-induced paw edema at 14.48 X 10^2 umol/kg, po administered 1 hr prior to carrageenan challenge through oral gavage measured measured 3 hr after carrageenan treatment by plethysmometer; type: functional
[12] = Toxicity in Rattus norvegicus Wistar albino (rat) assessed as mortality at 65.16 X 10^2 umol/kg, po; type: organism-based; conditions: in vivo, read-out: Activity
Rattus norvegicus [13] = test: Anti-inflammatory activity in Rattus norvegicus Wistar albino (rat) assessed as inhibition of carrageenan-induced paw edema at 3.62 X 10^2 umol/kg, po administered 1 hr prior to carrageenan challenge through oral gavage measured 1 hr after carrageenan treatment by plethysmometer; type: functional
Rattus norvegicus [14] = test: Anti-inflammatory activity in Rattus norvegicus Wistar albino (rat) assessed as inhibition of carrageenan-induced paw edema at 14.48 X 10^2 umol/kg, po administered 1 hr prior to carrageenan challenge through oral gavage measured measured 2 hr after carrageenan treatment by plethysmometer; type: functional
Rattus norvegicus [15] = test: Toxicity in Rattus norvegicus Wistar albino (rat) assessed as drinking frequency at 18.1 to 36.2 X 10^2 umol/kg, po; type: organism-based; conditions: in vivo
Rattus norvegicus [16] = test: Toxicity in Rattus norvegicus Wistar albino (rat) assessed as lethargy at 54.3 X 10^2 umol/kg, po; type: organism-based; conditions: in vivo
Rattus norvegicus [17] = test: Anti-inflammatory activity in Rattus norvegicus Wistar albino (rat) assessed as inhibition of carrageenan-induced paw edema at 7.24 X 10^2 umol/kg, po administered 1 hr prior to carrageenan challenge through oral gavage measured measured 3 hr after carrageenan treatment by plethysmometer; type: functional
[18] = Toxicity in Rattus norvegicus Wistar albino (rat) assessed as mortality at 57.92 X 10^2 umol/kg, po; type: organism-based; conditions: in vivo, read-out: Activity
Rattus norvegicus [19] = test: Anti-inflammatory activity in Rattus norvegicus Wistar albino (rat) assessed as inhibition of carrageenan-induced paw edema at 7.24 X 10^2 umol/kg, po administered 1 hr prior to carrageenan challenge through oral gavage measured measured 1 hr after carrageenan treatment by plethysmometer; type: functional
[20] = Toxicity in po dosed Rattus norvegicus Wistar albino (rat) assessed as mortality; type: organism-based; conditions: in vivo
Rattus norvegicus [21] = test: Toxicity in Rattus norvegicus Wistar albino (rat) assessed as lethargy at 18.1 to 36.2 X 10^2 umol/kg, po; type: organism-based; conditions: in vivo
Rattus norvegicus [22] = test: Anti-inflammatory activity in Rattus norvegicus Wistar albino (rat) assessed as inhibition of carrageenan-induced paw edema at 14.48 X 10^2 umol/kg, po administered 1 hr prior to carrageenan challenge through oral gavage measured measured 1 hr after carrageenan treatment by plethysmometer; type: functional
Rattus norvegicus [23] = test: Anti-inflammatory activity in Rattus norvegicus Wistar albino (rat) assessed as inhibition of carrageenan-induced paw edema at 3.62 X 10^2 umol/kg, po administered 1 hr prior to carrageenan challenge through oral gavage measured 4 hr after carrageenan treatment by plethysmometer; type: functional
Oryctolagus cuniculus [24] = test: as §1, with “3.62” for “7.24”, “5” for “30”, “288.5” for “498.8”; type: functional
Rattus norvegicus [25] = test: Anti-inflammatory activity in Rattus norvegicus Wistar albino (rat) assessed as inhibition of carrageenan-induced paw edema at 3.62 X 10^2 umol/kg, po administered 1 hr prior to carrageenan challenge through oral gavage measured 3 hr after carrageenan treatment by plethysmometer; type: functional
Rattus norvegicus [26] = test: Toxicity in Rattus norvegicus Wistar albino (rat) assessed as mortality at 68.78 X 10^2 umol/kg, po; type: organism-based; conditions: in vivo
Rattus norvegicus [27] = test: Anti-inflammatory activity in Rattus norvegicus Wistar albino (rat) assessed as inhibition of carrageenan-induced paw edema at 7.24 X 10^2 umol/kg, po administered 1 hr prior to carrageenan challenge through oral gavage measured measured 2 hr after carrageenan treatment by plethysmometer; type: functional
Rattus norvegicus [28] = test: Anti-inflammatory activity in Rattus norvegicus Wistar albino (rat) assessed as inhibition of carrageenan-induced paw edema at 14.48 X 10^2 umol/kg, po administered 1 hr prior to carrageenan challenge through oral gavage measured measured 4 hr after carrageenan treatment by plethysmometer; type: functional
Rattus norvegicus [29] = test: Anti-inflammatory activity in Rattus norvegicus Wistar albino (rat) assessed as inhibition of carrageenan-induced paw edema at 69.8 X 10^2 umol/kg, po administered 1 hr prior to carrageenan challenge through oral gavage measured measured 4 hr after carrageenan treatment by plethysmometer; type: functional
Rattus norvegicus [30] = test: Toxicity in Rattus norvegicus Wistar albino (rat) assessed as mortality at 139.6 umol/kg, po; type: organism-based; conditions: in vivo
Oryctolagus cuniculus [31] = test: as §1, with “27.9” for “7.24 x 10^2”, “5” for “30”, “288.5” for “498.8”; type: functional
Rattus norvegicus [32] = test: Anti-inflammatory activity in Rattus norvegicus Wistar albino (rat) assessed as inhibition of carrageenan-induced paw edema at 69.8 X 10^2 umol/kg, po administered 1 hr prior to carrageenan challenge through oral gavage measured measured 2 hr after carrageenan treatment by plethysmometer; type: functional
Rattus norvegicus [33] = test: Toxicity in Rattus norvegicus Wistar albino (rat) assessed as mortality at 69.8 umol/kg, po; type: organism-based; conditions: in vivo
Rattus norvegicus [34] = test: Anti-inflammatory activity in Rattus norvegicus Wistar albino (rat) assessed as inhibition of carrageenan-induced paw edema at 69.8 X 10^2 umol/kg, po administered 1 hr prior to carrageenan challenge through oral gavage measured measured 1 hr after carrageenan treatment by plethysmometer; type: functional
Oryctolagus cuniculus [35] = test: as §1, with “27.9” for “7.24 x 10^2”; type: functional

O=c1ccc(O)ccc1O
Activity (Rattus norvegicus [1]): Toxic | Activity (Oryctolagus cuniculus [2]): 267.5 mm2 | Activity (Rattus norvegicus [3]): Toxic | Activity (Oryctolagus cuniculus [4]): 196 mm2 | Activity (Rattus norvegicus [5]): Non-toxic | inhibition (INH) (Rattus norvegicus [6]): 67% | mortality [7]: 33% | Activity (Rattus norvegicus [8]): Toxic | inhibition (INH) (Rattus norvegicus [9]): 52% | Activity (Oryctolagus cuniculus [10]): 256 mm2 | inhibition (INH) (Rattus norvegicus [11]): 83% | mortality [12]: 66% | inhibition (INH) (Rattus norvegicus [13]): 48% | inhibition (INH) (Rattus norvegicus [14]): 75% | Activity (Rattus norvegicus [15]): Non-toxic | Activity (Rattus norvegicus [16]): Toxic | inhibition (INH) (Rattus norvegicus [17]): 79% | mortality [18]: 16% | inhibition (INH) (Rattus norvegicus [19]): 41% | LD50 [20]: 6440 µmol/kg | Activity (Rattus norvegicus [21]): Non-toxic | inhibition (INH) (Rattus norvegicus [22]): 76% | inhibition (INH) (Rattus norvegicus [23]): 42% | Activity (Oryctolagus cuniculus [24]): 212.5 mm2 | inhibition (INH) (Rattus norvegicus [25]): 45% | Activity (Rattus norvegicus [26]): Toxic | inhibition (INH) (Rattus norvegicus [27]): 72% | inhibition (INH) (Rattus norvegicus [28]): 75%

COc1ccc2c(c1)c(CC(=O)O)c(C)n2C(=O)c1ccc(Cl)cc1 [INDOMETHACIN]
inhibition (INH) (Rattus norvegicus [29]): 45% | Activity (Rattus norvegicus [30]): Toxic | Activity (Oryctolagus cuniculus [31]): 227 mm2 | inhibition (INH) (Rattus norvegicus [32]): 51% | Activity (Rattus norvegicus [33]): Non-toxic | inhibition (INH) (Rattus norvegicus [34]): 50% | Activity (Oryctolagus cuniculus [35]): 279.3 mm2
